Legend:
CCRF-CEM = type: cell-based; details: Homo sapiens, one dose 10^-5 M, 48 h
HL-60(TB) = type: cell-based; details: Homo sapiens, one dose 10^-5 M, 48 h
K-562 = type: cell-based; details: Homo sapiens, K562, one dose 10^-5 M, 48 h
MOLT-4 = type: cell-based; details: Homo sapiens, one dose 10^-5 M, 48 h, read-out: % growth
RPMI-8226 = type: cell-based; details: Homo sapiens, one dose 10^-5 M, 48 h
SR = type: cell-based; details: Homo sapiens, one dose 10^-5 M, 48 h
A549/ATCC = type: cell-based; details: Homo sapiens, one dose 10^-5 M, 48 h
EKVX = type: cell-based; details: Homo sapiens, one dose 10^-5 M, 48 h
HOP-62 = type: cell-based; details: Homo sapiens, one dose 10^-5 M, 48 h
HOP-92 = type: cell-based; details: Homo sapiens, one dose 10^-5 M, 48 h
NCI-H226 = type: cell-based; details: Homo sapiens, one dose 10^-5 M, 48 h
NCI-H23 = type: cell-based; details: Homo sapiens, one dose 10^-5 M, 48 h, read-out: % growth
NCI-H460 = type: cell-based; details: Homo sapiens, one dose 10^-5 M, 48 h, read-out: % growth
NCI-H522 = type: cell-based; details: Homo sapiens, one dose 10^-5 M, 48 h
COLO 205 = type: cell-based; details: Homo sapiens, one dose 10^-5 M, 48 h
HCC-2998 = type: cell-based; details: Homo sapiens, one dose 10^-5 M, 48 h
HCT-116 = type: cell-based; details: Homo sapiens, one dose 10^-5 M, 48 h, read-out: % growth
HCT-15 = type: cell-based; details: Homo sapiens, one dose 10^-5 M, 48 h, read-out: % growth
HT29 = type: cell-based; details: Homo sapiens, HT-29, one dose 10^-5 M, 48 h
KM12 = type: cell-based; details: Homo sapiens, one dose 10^-5 M, 48 h
SW-620 = type: cell-based; details: Homo sapiens, one dose 10^-5 M, 48 h
SF-268 = type: cell-based; details: Homo sapiens, one dose 10^-5 M, 48 h, read-out: % growth
SF-295 = type: cell-based; details: Homo sapiens, one dose 10^-5 M, 48 h
SF-539 = type: cell-based; details: Homo sapiens, one dose 10^-5 M, 48 h
SNB-19 = type: cell-based; details: Homo sapiens, one dose 10^-5 M, 48 h, read-out: % growth
SNB-75 = type: cell-based; details: Homo sapiens, one dose 10^-5 M, 48 h
U251 = type: cell-based; details: Homo sapiens, U-251, one dose 10^-5 M, 48 h
LOX IMVI = type: cell-based; details: Homo sapiens, one dose 10^-5 M, 48 h, read-out: % growth
MALME-3M = type: cell-based; details: Homo sapiens, one dose 10^-5 M, 48 h
M14 = type: cell-based; details: Homo sapiens, one dose 10^-5 M, 48 h
MDA-MB-435 = type: cell-based; details: Homo sapiens, one dose 10^-5 M, 48 h, read-out: % growth
SK-MEL-2 = type: cell-based; details: Homo sapiens, one dose 10^-5 M, 48 h
SK-MEL-28 = type: cell-based; details: Homo sapiens, one dose 10^-5 M, 48 h
SK-MEL-5 = type: cell-based; details: Homo sapiens, one dose 10^-5 M, 48 h, read-out: % growth
UACC-257 = type: cell-based; details: Homo sapiens, one dose 10^-5 M, 48 h
UACC-62 = type: cell-based; details: Homo sapiens, one dose 10^-5 M, 48 h
IGROV1 = type: cell-based; details: Homo sapiens, IGROV-1, one dose 10^-5 M, 48 h, read-out: % growth
OVCAR-3 = type: cell-based; details: Homo sapiens, one dose 10^-5 M, 48 h
OVCAR-4 = type: cell-based; details: Homo sapiens, one dose 10^-5 M, 48 h
OVCAR-5 = type: cell-based; details: Homo sapiens, one dose 10^-5 M, 48 h
OVCAR-8 = type: cell-based; details: Homo sapiens, one dose 10^-5 M, 48 h
NCI/ADR-RES = type: cell-based; details: Homo sapiens, one dose 10^-5 M, 48 h
SK-OV-3 = type: cell-based; details: Homo sapiens, one dose 10^-5 M, 48 h
786-0 = type: cell-based; details: Homo sapiens, one dose 10^-5 M, 48 h
A498 = type: cell-based; details: Homo sapiens, one dose 10^-5 M, 48 h
ACHN = type: cell-based; details: Homo sapiens, one dose 10^-5 M, 48 h
CAKI-1 = type: cell-based; details: Homo sapiens, CAKI-1, 48 h, one dose 10^-5 M, 48 h
SN12C = type: cell-based, human; details: Homo sapiens, one dose 10^-5 M, 48 h
TK-10 = type: cell-based; details: Homo sapiens, one dose 10^-5 M, 48 h
UO-31 = type: cell-based; details: Homo sapiens, UO-31, 48 h, one dose 10^-5 M, 48 h
PC-3 = type: cell-based; details: Homo sapiens, one dose 10^-5 M, 48 h
DU-145 = type: cell-based; details: Homo sapiens, one dose 10^-5 M, 48 h
MCF7 = type: cell-based; details: Homo sapiens, one dose 10^-5 M, 48 h, read-out: % growth
MDA-MB-231/ATCC = type: cell-based; details: Homo sapiens, one dose 10^-5 M, 48 h
HS 578T = type: cell-based; details: Homo sapiens; one dose 10^-5 M, 48 h; HS 578T; read-out: % growth
BT-549 = type: cell-based; details: Homo sapiens, one dose 10^-5 M, 48 h
T-47D = type: cell-based; details: Homo sapiens, T47D, one dose 10^-5 M, 48 h, read-out: % growth
MDA-MB-468 = type: cell-based; details: Homo sapiens, one dose 10^-5 M, 48 h
[1] = test system: full NCI 60 cell lines panel
Procedure: 60 different human tumour cell lines-representing leukaemia, melanoma, and malignancies of the lung, colon, brain, ovary, breast, prostate, and kidney are used in the operation of this screen.
Compounds were dissolved in DMSO: glycerol (91) and were kept in a freezer at −70° C. The synthesised compounds were introduced to the culture at a single concentration of 1 0 ^−5 M and left to incubate for 48 h. A protein-binding dye called sulforhodamine B was used to measure end points (SRB).
A mean graph showing the % growth of treated cells is used to represent the one-dose data. The value provided for the One-dose assay represents growth in comparison to the no-drug control and to the number of cells at time zero. This enables the identification of lethality (values between 0 and 100) as well as growth inhibition (values less than 0). A value of 100, for instance, indicates no growth inhibition. A value of 40 would indicate 60% growth inhibition. A value of 0 indicates no net growth over the course of the experiment. A value of −40 would indicate 40% lethality.
Furthermore, the average sensitivity of all cell lines to the compound is termed as the full panel mean graph midpoints (MG-MID). The complete panel mean graph midpoints refers to the average sensitivity of all cell lines to the chemical (MG-MID). A measure of a compound’s selectivity for a given cell line is the ratio created by dividing the full panel mean graph midpoints (MG-MID) concentration by the individual subpanel MG-MID concentrations (obtained as the average sensitivity of all the cell lines in a given subpanel to the test compound).

In the case of `CN(C)c1ccc(-c2nc(S)nc(N)c2C#N)cc1` [Compound 1a], the % cell growth at 10 µM (CCRF-CEM) is reported as 90.9%, the % growth at 10 µM (HL-60(TB)) is reported as 94% and the % growth at 10 µM (K-562) is reported as 89.8%. For the same molecule, the activity at 10 µM (MOLT-4) was 92.6%, the % growth at 10 µM (RPMI-8226) was 80.5% and the percent cell growth at 10 µM (SR) was 83%. It also gave a % growth at 10 µM (A549/ATCC) of 96.5%, a % cell growth at 10 µM (EKVX) of 87.9% and a % growth at 10 µM (HOP-62) of 117%. It also gave a % growth at 10 µM (HOP-92) of 94%, a % growth at 10 µM (NCI-H226) of 96% and an activity at 10 µM (NCI-H23) of 95%. For the same molecule, the activity at 10 µM (NCI-H460) was 113%, the % growth at 10 µM (NCI-H522) was 79.7% and the % growth at 10 µM (COLO 205) was 123%. For the same molecule, the % growth at 10 µM (HCC-2998) was 105%, the activity at 10 µM (HCT-116) was 91.9% and the activity at 10 µM (HCT-15) was 86.4%. For the same molecule, the % growth at 10 µM (HT29) was 109%, the % growth at 10 µM (KM12) was 92.3% and the % growth at 10 µM (SW-620) was 113%. The activity at 10 µM (SF-268) was 104%, the % cell growth at 10 µM (SF-295) was 103% and the % growth at 10 µM (SF-539) was 98.4%. It also gave an activity at 10 µM (SNB-19) of 89.9%, a % growth at 10 µM (SNB-75) of 107% and a % growth at 10 µM (U251) of 90.6%. It also gave an activity at 10 µM (LOX IMVI) of 85.6%, a % growth at 10 µM (MALME-3M) of 106% and a % growth at 10 µM (M14) of 102%. The activity at 10 µM (MDA-MB-435) was 103%, the % growth at 10 µM (SK-MEL-2) was 107% and the % cell growth at 10 µM (SK-MEL-28) was 103%. It also gave an activity at 10 µM (SK-MEL-5) of 88.7%, a percent cell growth at 10 µM (UACC-257) of 102% and a % growth at 10 µM (UACC-62) of 77.2%. The activity at 10 µM (IGROV1) was 100%, the % growth at 10 µM (OVCAR-3) was 94.4% and the % growth at 10 µM (OVCAR-4) was 101%. It also gave a percent cell growth at 10 µM (OVCAR-5) of 108%, a % growth of cells at 10 µM (OVCAR-8) of 103% and a cell growth percent at 10 µM (NCI/ADR-RES) of 91.2%. It also gave a % growth at 10 µM (SK-OV-3) of 121%, a % growth at 10 µM (786-0) of 87.9% and a % growth at 10 µM (A498) of 131%. The % growth at 10 µM (ACHN) was 98%, the % growth at 10 µM (CAKI-1) was 92.4% and the % growth at 10 µM (SN12C) was 90.7%. The % cell growth at 10 µM (TK-10) was 111%, the % cell growth at 10 µM (UO-31) was 83.8% and the percent cell growth at 10 µM (PC-3) was 87.8%. It also gave a % growth at 10 µM (DU-145) of 102%, an activity at 10 µM (MCF7) of 80.4% and a % growth at 10 µM (MDA-MB-231/ATCC) of 96%. The activity at 10 µM (HS 578T) was 100%, the % cell growth at 10 µM (BT-549) was 85.4% and the activity at 10 µM (T-47D) was 75.6%. For the same molecule, the percent cell growth at 10 µM (MDA-MB-468) was 60.2%, the activity at 10 µM ([1]; Homo sapiens, 60 cell, 48 h, read-out: Mean % growth) was 96.6% and the “activity on all 60 cancer cell lines tested (in words)” value ([1]; one dose) was “weak activity”.

From PMC10866072, “Design, synthesis, molecular modelling and biological evaluation of novel 6-amino-5-cyano-2-thiopyrimidine derivatives as potent anticancer agents against leukemia and apoptotic inducers” (Journal of Enzyme Inhibition and Medicinal Chemistry, 2024)
